How the values were obtained:
Cyclic GMP-AMP synthase [1] = target: T1, Cyclic GMP-AMP synthase (Homo sapiens, UniProt Q8N884); assay: Inhibition of CGAS in human THP1 cells transfected with mock Sendai virus and measured after 16 hrs by Gaussia luciferase reporter gene assay; assay type: cell-based
Cyclic GMP-AMP synthase [2] = target: T1, Cyclic GMP-AMP synthase; assay: Inhibition of CGAS in human THP1 cells transfected with interferon stimulatory DNA and measured after 16 hrs by Gaussia luciferase reporter gene assay; assay type: cell-based
Cyclic GMP-AMP synthase [3] = target: T1, Cyclic GMP-AMP synthase; assay: Inhibition of recombinant His6-SUMO tagged human CGAS expressed in Escherichia coli BL21/pLys cells incubated for 20 mins by Kinase Glo chemiluminescence assay

T1 sequence (Q8N884 whole entry): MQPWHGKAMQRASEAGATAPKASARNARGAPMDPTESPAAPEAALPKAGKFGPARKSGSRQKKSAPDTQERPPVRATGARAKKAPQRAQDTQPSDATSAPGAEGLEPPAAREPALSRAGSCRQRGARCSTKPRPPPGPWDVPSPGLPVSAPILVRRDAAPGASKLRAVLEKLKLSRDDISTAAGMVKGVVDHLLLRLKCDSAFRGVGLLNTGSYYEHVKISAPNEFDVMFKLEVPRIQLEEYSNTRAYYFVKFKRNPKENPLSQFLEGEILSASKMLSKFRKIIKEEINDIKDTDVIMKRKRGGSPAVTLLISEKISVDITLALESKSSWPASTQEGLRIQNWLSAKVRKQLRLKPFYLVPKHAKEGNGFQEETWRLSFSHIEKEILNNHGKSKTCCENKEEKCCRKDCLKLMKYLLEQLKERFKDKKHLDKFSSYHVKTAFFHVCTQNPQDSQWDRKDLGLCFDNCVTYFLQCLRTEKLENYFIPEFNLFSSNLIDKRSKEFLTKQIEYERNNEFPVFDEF

IC50 (Cyclic GMP-AMP synthase [1]) [nM] | IC50 (Cyclic GMP-AMP synthase [2]) [nM] | IC50 (Cyclic GMP-AMP synthase [3]) [nM] | SMILES
≥ 10000 | ≤ 2500 | ≤ 500 | CN1C(=O)S/C(=C\c2cc(OCc3cnc(N)nc3)c(O)cc2Br)C1=O
≥ 10000 | ≤ 2500 | ≤ 500 | CN1C(=O)S/C(=C\c2cc(OCc3cnc(NN)nc3)c(O)cc2Br)C1=O
≥ 10000 | ≤ 2500 | ≤ 500 | CNc1ncc(COc2cc(/C=C3\SC(=O)N(C)C3=O)c(Br)cc2O)cn1
≥ 10000 | ≤ 2500 | ≤ 500 | Nc1ncc(COc2cc(/C=C3\Sc4ncccc4C3=O)c(Br)cc2O)cn1
≥ 10000 | ≤ 2500 | ≤ 500 | CN1C(=O)S/C(=C\c2cc(OCc3cn[nH]c3)c(O)cc2Br)C1=O
≥ 10000 | 2500 to 10000 | ≤ 500 | Nc1ncncc1COc1cc(/C=C2\Sc3ncccc3C2=O)c(Br)cc1O
≥ 10000 | 2500 to 10000 | ≤ 500 | CNc1ncc(COc2cc(/C=C3\Sc4ncccc4C3=O)c(Br)cc2O)cn1
≥ 10000 | ≤ 2500 | ≤ 500 | CN1C(=O)S/C(=C\c2cc(OCc3cnc(N)nc3)c(O)c(F)c2Br)C1=O
≥ 10000 | ≤ 2500 | ≤ 500 | Cc1nc(N)ncc1COc1cc(/C=C2\SC(=O)N(C)C2=O)c(Br)cc1O
≥ 10000 | ≤ 2500 | ≤ 500 | CN1C(=O)S/C(=C\c2cc(OCc3cncnc3N)c(O)cc2Br)C1=O
≥ 10000 | ≤ 2500 | ≤ 500 | Cc1nc(N)ncc1COc1cc(/C=C2\SC(=O)N(C)C2=O)c(Br)c(F)c1O
≥ 10000 | ≤ 2500 | ≤ 500 | CN1C(=O)S/C(=C\c2cc(OCc3ccnc4[nH]cnc34)c(O)cc2Br)C1=O
2500 to 10000 | ≤ 2500 | ≤ 500 | C[S+]([O-])c1ncc(COc2cc(/C=C3\Sc4ncccc4C3=O)c(Br)cc2O)cn1 (configuration not stated)
≥ 10000 | ≤ 2500 | ≤ 500 | CN1C(=O)S/C(=C\c2cc(OCc3cnc(NCCO)nc3)c(O)c(F)c2Br)C1=O
≥ 10000 | ≤ 2500 | ≤ 500 | CN1C(=O)S/C(=C\c2cc(OCc3cncnc3)c(O)cc2Br)C1=O

The next lines start with the molecule.

SMILES | IC50 (Cyclic GMP-AMP synthase [1]) [nM] | IC50 (Cyclic GMP-AMP synthase [2]) [nM] | IC50 (Cyclic GMP-AMP synthase [3]) [nM]
O=C1/C(=C/c2cc(OC(F)(F)F)c(O)cc2Br)Sc2ncccc21 | ≥ 10000 | 2500 to 10000 | 500 to 10000
CN1C(=O)S/C(=C\c2cc(OCc3cnc(NCc4ccccn4)nc3)c(O)cc2Br)C1=O | ≥ 10000 | 2500 to 10000 | ≤ 500
CN1C(=O)S/C(=C\c2cc(OCc3cn(-c4ccncc4)nn3)c(O)cc2Br)C1=O | ≥ 10000 | 2500 to 10000 | ≥ 10000
CC(Oc1cc(/C=C2\SC(=O)N(C)C2=O)c(Br)cc1O)c1cncnc1N (configuration not stated) | ≥ 10000 | 2500 to 10000 | ≤ 500
CN1C(=O)S/C(=C\c2cc(OCc3cnc([S+](C)[O-])nc3)c(O)cc2Br)C1=O (configuration not stated) | ≥ 10000 | 2500 to 10000 | ≤ 500
O=C1/C(=C/c2cc(OCc3cnc(NCc4cccnc4)nc3)c(O)c(F)c2Br)Sc2ncccc21 | ≥ 10000 | 2500 to 10000 | ≤ 500
Nc1ncc(COc2cc(/C=C3\Sc4ncccc4C3=O)c(Br)c(F)c2O)cn1 | ≥ 10000 | ≤ 2500 | ≤ 500
CN1C(=O)S/C(=C\c2cc(OCc3cnc(Cl)nc3)c(O)cc2Br)C1=O | ≥ 10000 | 2500 to 10000 | ≤ 500
COc1cc(/C=C2\Sc3ncccc3C2=O)c(Br)c(F)c1O | ≥ 10000 | 2500 to 10000 | ≤ 500
CN1C(=O)S/C(=C\c2cc(OCc3cnc(NCc4cccnc4)nc3)c(O)cc2Br)C1=O | ≥ 10000 | 2500 to 10000 | ≤ 500
CN1C(=O)S/C(=C\c2cc(OCc3cnc(NC4CC4)nc3)c(O)cc2Br)C1=O | ≥ 10000 | ≤ 2500 | 500 to 10000
COCCNc1ncc(COc2cc(/C=C3\SC(=O)N(C)C3=O)c(Br)c(F)c2O)cn1 | ≥ 10000 | 2500 to 10000 | ≤ 500
CN1C(=O)S/C(=C\c2cc(OCc3cnc4ccccc4c3)c(O)cc2Br)C1=O | ≥ 10000 | 2500 to 10000 | ≥ 10000
CN1C(=O)S/C(=C\c2cc(OCC3CCCCC3)c(O)cc2Br)C1=O | 2500 to 10000 | 2500 to 10000 | ≥ 10000
CC1C(=O)S/C(=C\c2cc(OC(C)c3cnc(Cl)nc3)c(O)c(F)c2Br)C1=O (configuration not stated) | 2500 to 10000 | 2500 to 10000 | ≤ 500
O=C1/C(=C/c2cc(OCc3cncnc3)c(O)cc2Br)Sc2ncccc21 | ≥ 10000 | 2500 to 10000 | ≤ 500
O=C1/C(=C/c2cc(OCc3cnc(NCc4ccncc4)nc3)c(O)cc2Br)Sc2ncccc21 | ≥ 10000 | ≤ 2500 | ≤ 500

SMILES | IC50 (Cyclic GMP-AMP synthase [1]) [nM] | IC50 (Cyclic GMP-AMP synthase [2]) [nM] | IC50 (Cyclic GMP-AMP synthase [3]) [nM]
CNc1ncc(COc2cc(/C=C3\Sc4ncccc4C3=O)c(Br)c(F)c2O)cn1 | ≥ 10000 | 2500 to 10000 | ≤ 500
COc1cc(/C=C2\SC(=O)N(C)C2=O)c(I)cc1O | ≥ 10000 | 2500 to 10000 | ≤ 500
CC(C)C(=O)N1CCC(COc2cc(/C=C3\SC(=O)N(C)C3=O)c(Br)cc2O)CC1 | ≥ 10000 | 2500 to 10000 | ≥ 10000
CN1C(=O)S/C(=C\c2cc(Oc3ccc(N)nc3)c(O)cc2Br)C1=O | ≥ 10000 | 2500 to 10000 | ≥ 10000
CN1C(=O)S/C(=C\c2cc(OCc3cnc(N)nc3)c(Oc3cnc(N)s3)cc2Br)C1=O | ≥ 10000 | 2500 to 10000 | 500 to 10000
CC(C)n1ccc(COc2cc(/C=C3\SC(=O)N(C)C3=O)c(Br)cc2O)cc1=O | ≥ 10000 | 2500 to 10000 | ≥ 10000
Cc1ncc(COc2cc(/C=C3\Sc4ncccc4C3=O)c(Br)c(F)c2O)cn1 | ≥ 10000 | ≤ 2500 | ≤ 500
O=C1/C(=C/c2cc(OCc3cnc(NCc4ccccn4)nc3)c(O)c(F)c2Br)Sc2ncccc21 | ≥ 10000 | ≥ 10000 | ≤ 500
CN1C(=O)S/C(=C\c2cc(OCc3cnc[nH]3)c(O)cc2Br)C1=O | ≥ 10000 | 2500 to 10000 | ≥ 10000
CN1C(=O)S/C(=C\c2cc(OCc3cnc(NCc4ccncc4)nc3)c(O)cc2Br)C1=O | ≥ 10000 | 2500 to 10000 | ≤ 500
O=C1/C(=C/c2cc(OCc3cnc(NCCO)nc3)c(O)cc2Br)Sc2ncccc21 | ≥ 10000 | ≤ 2500 | ≤ 500
CC(Oc1cc(/C=C2\Sc3ncccc3C2=O)c(Br)cc1O)c1cnc(N)nc1 (configuration not stated) | ≥ 10000 | ≤ 2500 | ≤ 500
COCCNc1ncc(COc2cc(/C=C3\Sc4ncccc4C3=O)c(Br)cc2O)cn1 | ≥ 10000 | 2500 to 10000 | ≤ 500
CN1C(=O)S/C(=C\c2cc(OCc3ccc(N)nc3)c(O)cc2Br)C1=O | 2500 to 10000 | 2500 to 10000 | ≥ 10000
CN1C(=O)S/C(=C\c2cc(OCc3cnc(N)nc3C3CC3)c(O)cc2Br)C1=O | ≥ 10000 | 2500 to 10000 | ≤ 500
CN1C(=O)S/C(=C\c2cc(OCc3cnc(N4CCNCC4)nc3)c(O)cc2Br)C1=O | ≥ 10000 | 2500 to 10000 | ≤ 500
CN1C(=O)S/C(=C\c2cc(OCc3ncc(N)cn3)c(O)cc2Br)C1=O | ≥ 10000 | 2500 to 10000 | ≥ 10000

— ChEMBL document CHEMBL4418308, “cGAS ANTAGONIST COMPOUNDS” (2017)
